Like-named read-outs stand apart in the source and are kept apart here.
Experiments:
[1] = test system: MV-4-11; test: Long term proliferation assay (Table 3A), MV-4-11; type: cell-based; settings: Homo sapiens, MV4-11
Procedure: (§1) Example 5b: IC50 determination of compounds of invention in various cell lines (Long Term Proliferation Assay)
(§2) The following 5 cell lines are used or can be used for the long term proliferation assay.
(§3) Compounds of invention are tested in the 5 suspension lines by 14-day long-term proliferation assay.
(§4) The compound is tested in 10-pt dose titration (client will determine the starting concentration and the dilution scheme) and the final DMSO concentration is kept at 0.2%.
(§5) Vehicle and media control are also included. All treatments are done in triplicate.
(§6) 3 plates are used for each cell line and 15 plates are used for the 5 cell lines.
(§7) • 1) On Day 0, in a flat bottom 96-well plate, add 100 μL of cells per well at the densities optimized. • 2) Prepare compounds in DMSO at 500× final concentration. Dilute the compounds with DMSO at the dilution. • 3) Dilute the compounds in media at 3×final concentration. Add 50 μL of compound or DMSO at 3× final concentration to each well. Final volume in each well is 150 μL, and final concentration of DMSO is 0.2%. Also include 3 untreated control wells, by adding 50 μL of media alone. 4) Incubate plates for 96 hours. • 5) Count the cells using the Acumen, with capabilities for 96-well plates. Pipette cells up and down to mix in each well, and add desired volume of cells to a new flat bottom poly-D-lysine 96-well plate. Add Calcein AM at 1 μM final concentration. Let cells sit at RT for 10 mins followed by a quick spin to get cells settled on the bottom of the wells. Incubate the plate for additional 40 mins in the incubator. Take out the plate and read by Acumen. Calculate the cell numbers taken into account the dilution factors. • 6) Split the master plate. To do this take the total viable cell count calculated using step 5). Take the average of the replicates for each dose in order to be used in splitting the cells. • 7) Use a 96 well V-bottom plate to spin down the cells to remove old media and compound to split the cells. Based on the split ratio place the proper amount of media and cells into the V-bottom plate, and spin the plate at 1100 rpm for 5 minutes. • 8) Following the spin remove the media, careful not to disturb the cellpellet. • 9) Re-suspend pellet in 100 μL fresh media, and add to a new 96-well flat bottom plate. • 10) Add fresh compound, in the same manner as Step 3). • 11) Incubate plates for 72 hours. Repeat steps 5)-10) on Day 7. • 12) Incubate plates for 96 hours. Repeat Step 5)-10) on Day 11. • 13) Incubate 72 hours and repeat step 5) to take a final count. • 14) Data Analysis
(§8) To calculate growth for days 4, 7, 11, and 14: • Calculate the split factor for day 4 to 7, day 7 to 11, and day 11-14.

[2] = molecular target: menin (Homo sapiens (Human), UniProt O00255); test: Kd (Table 3A); type: binding
menin, sequence (O00255 whole entry, species assumed): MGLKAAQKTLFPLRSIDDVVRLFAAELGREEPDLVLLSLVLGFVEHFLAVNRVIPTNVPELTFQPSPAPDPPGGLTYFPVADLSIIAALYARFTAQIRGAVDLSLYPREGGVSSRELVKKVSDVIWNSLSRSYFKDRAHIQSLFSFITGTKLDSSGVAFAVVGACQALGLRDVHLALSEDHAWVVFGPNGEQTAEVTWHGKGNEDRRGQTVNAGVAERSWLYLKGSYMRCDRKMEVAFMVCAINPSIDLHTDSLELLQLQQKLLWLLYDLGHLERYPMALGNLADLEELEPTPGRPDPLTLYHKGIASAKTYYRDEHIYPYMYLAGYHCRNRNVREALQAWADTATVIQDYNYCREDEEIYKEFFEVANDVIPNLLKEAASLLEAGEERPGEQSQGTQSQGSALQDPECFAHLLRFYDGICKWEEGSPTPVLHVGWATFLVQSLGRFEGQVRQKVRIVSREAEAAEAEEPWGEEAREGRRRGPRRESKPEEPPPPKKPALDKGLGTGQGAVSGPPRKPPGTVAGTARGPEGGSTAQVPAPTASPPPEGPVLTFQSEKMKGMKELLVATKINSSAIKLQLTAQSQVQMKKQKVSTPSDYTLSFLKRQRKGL

[3] = test system: MOLM-13; test: Long term proliferation assay (Table 3A), MOLM-13; type: cell-based; settings: Homo sapiens
Procedure: as §1, §2, §3, §4, §5, §6, §7, §8

[4] = molecular target: Menin-MLL (Homo sapiens (Human), UniProt O00255); test: Menin-MLL in vitro inhibitory activity (Example 101a, Table 2); type: cell-based
Menin-MLL, sequence (O00255 whole entry): as the sequence (O00255 whole entry, species assumed) above

[5] = test system: MOLM-13; test: Long term proliferation, Cell Titer-Glo (Table 3B), MOLM-13; type: cell-based; settings: Homo sapiens, MOLM-13, Cell Titer-Glo
[6] = test system: MV4-11; test: Long term proliferation, InCell (Table 3C), MV4-11; type: cell-based; settings: Homo sapiens, MV4-11, InCell
Procedure: as §3, §4, §5, §7, §8

[7] = test system: OCI-AML-3; test: Long term proliferation, InCell (Table 3C), OCI-AML-3; type: cell-based; settings: Homo sapiens, OCI-AML-3, InCell
Procedure: as §3, §4, §5, §7, §8

[8] = test system: KG-1; test: Long term proliferation, InCell (Table 3C), KG-1; type: cell-based; settings: Homo sapiens, KG-1, InCell
Procedure: as §3, §4, §5, §7, §8

[9] = test system: KG-1; test: Long term proliferation, Cell Titer-Glo (Table 3B), KG-1; type: cell-based; settings: Homo sapiens, KG-1, Cell Titer-Glo
[10] = test system: MOLM-13; test: Long term proliferation, InCell (Table 3C), MOLM-13; type: cell-based; settings: Homo sapiens, MOLM-13, InCell
Procedure: as §3, §4, §5, §7, §8

[11] = test system: MV4-11; test: Long term proliferation, Cell Titer-Glo (Table 3B), MV4-11; type: cell-based; settings: Homo sapiens, MV4-11, Cell Titer-Glo
[12] = test system: OCI-AML-3; test: Long term proliferation, Cell Titer-Glo (Table 3B), OCI-AML-3; type: cell-based; settings: Homo sapiens, OCI-AML-3, Cell Titer-Glo
[13] = MV-4-11, Day 4, read-out: MV-4-11 Day 4 IC50
[14] = MV-4-11, Day 11, read-out: MV-4-11 Day 11 IC50
[15] = 96 h, MOLM-13, Day 4, read-out: MOLM-13 Day 4 IC50
[16] = 264 h, MOLM-13, Day 11, read-out: MOLM-13 Day 11 IC50
[17] = 96 h, Day 4, read-out: Day 4 IC50
[18] = 168 h, Day 7, read-out: Day 7 IC50
[19] = 264 h, Day 11, read-out: Day 11 IC50
[20] = 336 h, Day 14, read-out: Day 14 IC50

O=C(Nc1ccc(-c2cc3c(N4CCOCC4)ncnc3[nH]2)cc1)Nc1cc(-c2cccnc2)no1 [Compound 2, 1-(4-(4-morpholino-7H-pyrrolo[2,3-d]pyrimidin-6-yl)phenyl)-3-(3-(pyridin-3-yl)isoxazol-5-yl)urea]
IC50 [1, 13]: 174 nM
IC50 [1, 14]: 55 nM
Kd [2]: > 1000 nM
IC50 [3, 15]: 74 nM
IC50 [3, 16]: 54 nM
IC50 [4]: 240 nM

O=C(Nc1ccc(-c2cc3c(N4CCOCC4)ncnc3[nH]2)cc1)Nc1cc(-c2ccncc2)no1 [Compound 8, 1-{4-[4-(morpholin-4-yl)-7H-pyrrolo[2,3-d]pyrimidin-6-yl]phenyl}-3-[3-(pyridin-4-yl)-1,2-oxazol-5-yl]urea]
IC50 [5, 17]: 320 nM
IC50 [5, 18]: 200 nM
IC50 [5, 19]: 150 nM
IC50 [5, 20]: 250 nM
IC50 [1, 13]: 355 nM
IC50 [1, 14]: 71 nM
IC50 [6, 17]: 350 nM
IC50 [6, 19]: 280 nM
Kd [2]: 250 nM
IC50 [7, 17]: 490 nM
IC50 [7, 19]: 540 nM
IC50 [8, 17]: 3240 nM
IC50 [8, 19]: 2090 nM
IC50 [9, 17]: 4900 nM
IC50 [9, 18]: 2950 nM
IC50 [9, 19]: 2140 nM
IC50 [9, 20]: 680 nM
IC50 [3, 15]: 224 nM
IC50 [3, 16]: 55 nM
IC50 [10, 17]: 370 nM
IC50 [10, 19]: 190 nM
IC50 [11, 17]: 540 nM
IC50 [11, 18]: 100 nM
IC50 [11, 19]: 200 nM
IC50 [11, 20]: 60 nM
IC50 [12, 17]: 590 nM
IC50 [12, 18]: 560 nM
IC50 [12, 19]: 550 nM
IC50 [12, 20]: 550 nM

Source: patent US20240140953A1, “INHIBITORS OF MENIN-MLL INTERACTION” (BIOMEA FUSION, INC., priority 2018, published 2024)
